The values that follow come from patent publication US20080312085A1, “Pesticidal Compositions” (priority 2005, published 2008).

The test system of series [1] is Cotton Aphid (Aphis gossypii). Briefly: Cotton aphid test, cotyledons of infested cotton plants dipped. The series is classed as in vivo. As to conditions: 120 h, aphid mortality determined after 5 days, read-out: mortality in comparison with untreated controls. The source says:
B.1 Cotton Aphid (Aphis gossypii)
(§1) The active compounds were formulated in 50:50 acetone:water and 100 ppm Kinetica™ surfactant.
Cotton plants in the cotyledon stage (variety ‘Delta Pine’) are infested with approximately 100 laboratory-reared aphids by placing infested leaf sections on top of the test plants. The leaf sections are removed after 24 hr. The cotyledons of the intact plants are dipped into gradient solutions of the test compound. Aphid mortality on the treated plants, relative to mortality on check plants, is determined after 5 days.

Series [2] concerns Green Peach Aphid (Myzus persicae). In words: Green peach aphid test, leaves of infested pepper plants dipped. The series is classed as in vivo. The settings on record: 120 h, aphid mortality determined after 5 days, read-out: mortality in comparison with untreated controls.
Description: B.2 Green Peach Aphid (Myzus persicae)
as §1
Pepper plants in the 2nd leaf-pair stage (variety ‘California Wonder’) are infested with approximately 40 laboratory-reared aphids by placing infested leaf sections on top of the test plants. The leaf sections are removed after 24 hr. The leaves of the intact plants are dipped into gradient solutions of the test compound. Aphid mortality on the treated plants, relative to mortality on check plants, is determined after 5 days.

In series [3] the test system is Cowpea Aphid (aphis craccivora). Briefly: Cowpea aphid test, colonized potted cowpea plants sprayed. The series is classed as in vivo. The settings on record: population reduction recorded after 24, 72 and 120 hours, read-out: mortality in comparison with untreated controls. As to the method: B.3 Cowpea Aphid (aphis craccivora)
The active compounds were formulated in 50:50 acetone:water. Potted cowpea plants colonized with 100-150 aphids of various stages were sprayed after the pest population has been recorded. Population reduction was recorded after 24, 72, and 120 hours.

Series [4] relates to Vetch Aphid (Megoura viciae). Briefly: Vetch aphid test, sprayed bean leaf disks in microtiterplates. The series is classed as in vivo. The settings on record: foliar, 144 h, bean leaf disks sprayed with 2.5 μl, 6 days, read-out: mortality in comparison with untreated controls. As to the method: B.4 Vetch Aphid (Megoura viciae)
The active compounds were formulated in 1:3 DMSO:water. Bean leaf disks were placed into microtiterplates filled with 0.8% agar-agar and 2.5 ppm OPUS™. The leaf disks were sprayed with 2.5 μl of the test solution and 5 to 8 adult aphids were placed into the microtiterplates which were then closed and kept at 22-24° C. and 35-45% under fluorescent light for 6 days. Mortality was assessed on the basis of vital, reproduced aphids. Tests were replicated twice.

As for `Clc1cccc(C(Cc2cc(Cl)c3ccccc3n2)NC2=NCCS2)c1Cl` (centres unmarked) [Compound Example 12], the melting point fell in the range of 71 to 73 °C.
On to `Clc1cccc(C(Cc2cn(Cc3ccccc3)nn2)NC2=NCCS2)c1Cl` (centres unmarked) [Compound Example 35], for which the melting point is 74 to 89 °C.
Turning to `Clc1cccc(C(Cc2ccccn2)NC2=NCCS2)c1Cl` (centres unmarked) [compound 1], the mortality at 300 ppm in series [1], in series [2] and in series [3] was over 80% each time.
`Cc1ccc(CC(NC2=NCCS2)c2cccc(Cl)c2Cl)nc1` (centres unmarked) [compound 3]: the mortality at 300 ppm in series [1], in series [2] and in series [3] was over 80% each time.
For the compound `Cc1cccc(CC(NC2=NCCS2)c2cccc(Cl)c2Cl)n1` (centres unmarked) [compound 4], the mortality at 300 ppm in series [1], in series [2] and in series [3] was over 80% throughout.
As for `Cc1cc(C)nc(CC(NC2=NCCS2)c2cccc(Cl)c2Cl)c1` (centres unmarked) [compound 6], the mortality at 300 ppm in series [1], in series [2] and in series [3] was over 80% throughout. In addition, the mortality at 2500 ppm in series [4] is over 80%.
In the case of `Clc1cccc(C(Cc2nccc3ccccc23)NC2=NCCS2)c1Cl` (centres unmarked) [compound 8], the mortality at 300 ppm in series [1], in series [2] and in series [3] was over 80% in each case. In series [4], the mortality at 2500 ppm was over 80%.
As for `Clc1cccc(C(Cc2ccc3ccccc3n2)NC2=NCCS2)c1Cl` (centres unmarked) [compound 9], the mortality at 300 ppm in series [1], in series [2] and in series [3] was over 80% throughout. Moreover, in series [4], the mortality at 2500 ppm is over 80%.
With `Clc1cccc(C(Cc2cccnc2)NC2=NCCS2)c1Cl` (centres unmarked) [compound 13], in series [2], the mortality at 300 ppm was over 80%.
Regarding `Cc1cc(CC(NC2=NCCS2)c2cccc(Cl)c2Cl)on1` (centres unmarked) [compound 23], in series [3], the mortality at 300 ppm was over 80%.
Consider `CCc1cc(CC(NC2=NCCS2)c2cccc(Cl)c2Cl)on1` (centres unmarked) [compound 24], for which the mortality at 300 ppm in series [1] and in series [2] was over 80% in each case.
As for `Cc1nc(CC(NC2=NCCS2)c2cccc(Cl)c2Cl)oc1C` (centres unmarked) [compound 31], the mortality at 300 ppm in series [3] is over 80%.
Consider `c1ccc(C(Cc2ccco2)NC2=NCCS2)cc1` (centres unmarked) [compound 38], for which the mortality at 300 ppm in series [1] and in series [2] was over 80% in each case.
For the compound `c1ccc(C(Cc2cccs2)NC2=NCCS2)cc1` (centres unmarked) [compound 39], the mortality at 300 ppm in series [1] and in series [2] was over 80% each time.

Usually melting point stands for the temperature, or range, at which the solid turns liquid. Broadly, the mortality is the percentage killed.
